Measurements: ChEMBL document CHEMBL4507282, “Data for DCP probe BI-1950” (2021)

Tests used:
[1] = target: Serine/threonine-protein kinase 10 (Homo sapiens) (UniProt O94804); conditions: Compound concentration 1000.0 nM
[2] = target: RAC-alpha serine/threonine-protein kinase (Homo sapiens) (UniProt P31749); conditions: Compound concentration 1000.0 nM
[3] = target: Casein kinase I isoform alpha (Homo sapiens) (UniProt P48729); conditions: Compound concentration 1000.0 nM
[4] = target: Bone morphogenetic protein receptor type-1B (Homo sapiens) (UniProt O00238); conditions: Compound concentration 1000.0 nM
[5] = test system: Mast/stem cell growth factor receptor Kit (Homo sapiens), P10721 [D816V]; conditions: Compound concentration 1000.0 nM
[6] = target: Mitogen-activated protein kinase kinase kinase 19 (Homo sapiens) (UniProt Q56UN5); conditions: Compound concentration 1000.0 nM
[7] = target: Macrophage colony-stimulating factor 1 receptor (Homo sapiens) (UniProt P07333); conditions: Compound concentration 1000.0 nM
Chain of Macrophage colony-stimulating factor 1 receptor (Homo sapiens) (P07333 whole entry): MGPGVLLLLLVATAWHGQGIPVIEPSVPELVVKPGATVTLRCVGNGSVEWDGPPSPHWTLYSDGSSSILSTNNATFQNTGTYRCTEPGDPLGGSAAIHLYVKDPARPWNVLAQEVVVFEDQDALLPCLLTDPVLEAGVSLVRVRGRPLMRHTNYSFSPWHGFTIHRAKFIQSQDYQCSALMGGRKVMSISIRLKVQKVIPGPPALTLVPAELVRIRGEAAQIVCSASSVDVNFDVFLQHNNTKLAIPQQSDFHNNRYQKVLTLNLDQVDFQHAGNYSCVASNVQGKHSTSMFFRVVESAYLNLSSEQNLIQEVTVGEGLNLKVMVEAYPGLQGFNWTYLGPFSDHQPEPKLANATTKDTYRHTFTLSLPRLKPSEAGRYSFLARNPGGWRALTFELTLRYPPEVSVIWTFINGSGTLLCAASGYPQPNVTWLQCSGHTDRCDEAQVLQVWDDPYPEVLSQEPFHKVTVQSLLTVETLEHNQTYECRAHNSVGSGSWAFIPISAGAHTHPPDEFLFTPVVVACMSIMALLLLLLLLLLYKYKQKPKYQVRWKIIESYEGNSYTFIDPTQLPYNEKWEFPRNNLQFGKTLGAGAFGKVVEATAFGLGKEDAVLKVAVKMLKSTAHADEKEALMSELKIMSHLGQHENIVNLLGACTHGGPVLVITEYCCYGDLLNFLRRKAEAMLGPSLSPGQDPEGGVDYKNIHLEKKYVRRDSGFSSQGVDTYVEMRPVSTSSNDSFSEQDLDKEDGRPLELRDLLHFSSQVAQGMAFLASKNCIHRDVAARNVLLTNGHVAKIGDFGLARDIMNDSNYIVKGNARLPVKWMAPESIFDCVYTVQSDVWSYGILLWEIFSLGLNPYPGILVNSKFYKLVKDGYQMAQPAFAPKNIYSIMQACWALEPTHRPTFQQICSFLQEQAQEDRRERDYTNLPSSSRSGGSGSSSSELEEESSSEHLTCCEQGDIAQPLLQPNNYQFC

[8] = target: 5-hydroxytryptamine receptor 7 (Homo sapiens) (UniProt P34969); conditions: Compound concentration 10.0 uM
Chain of 5-hydroxytryptamine receptor 7 (Homo sapiens) (P34969 whole entry): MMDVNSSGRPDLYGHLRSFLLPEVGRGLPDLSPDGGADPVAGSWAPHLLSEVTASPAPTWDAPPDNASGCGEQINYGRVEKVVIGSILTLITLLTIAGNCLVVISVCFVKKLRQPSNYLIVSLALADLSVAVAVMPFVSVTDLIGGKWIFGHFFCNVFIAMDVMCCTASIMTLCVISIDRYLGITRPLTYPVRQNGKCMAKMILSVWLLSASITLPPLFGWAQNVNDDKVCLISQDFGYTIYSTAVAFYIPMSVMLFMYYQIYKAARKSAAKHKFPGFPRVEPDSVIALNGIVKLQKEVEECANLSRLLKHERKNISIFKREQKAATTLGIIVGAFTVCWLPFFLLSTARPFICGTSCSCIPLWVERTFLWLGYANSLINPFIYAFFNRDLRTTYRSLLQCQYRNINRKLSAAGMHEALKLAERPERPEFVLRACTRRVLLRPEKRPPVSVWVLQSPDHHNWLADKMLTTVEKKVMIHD

[9] = target: Ribosomal protein S6 kinase alpha-2 (Homo sapiens) (UniProt Q15349); conditions: Compound concentration 1000.0 nM
Chain of Ribosomal protein S6 kinase alpha-2 (Homo sapiens) (Q15349 whole entry): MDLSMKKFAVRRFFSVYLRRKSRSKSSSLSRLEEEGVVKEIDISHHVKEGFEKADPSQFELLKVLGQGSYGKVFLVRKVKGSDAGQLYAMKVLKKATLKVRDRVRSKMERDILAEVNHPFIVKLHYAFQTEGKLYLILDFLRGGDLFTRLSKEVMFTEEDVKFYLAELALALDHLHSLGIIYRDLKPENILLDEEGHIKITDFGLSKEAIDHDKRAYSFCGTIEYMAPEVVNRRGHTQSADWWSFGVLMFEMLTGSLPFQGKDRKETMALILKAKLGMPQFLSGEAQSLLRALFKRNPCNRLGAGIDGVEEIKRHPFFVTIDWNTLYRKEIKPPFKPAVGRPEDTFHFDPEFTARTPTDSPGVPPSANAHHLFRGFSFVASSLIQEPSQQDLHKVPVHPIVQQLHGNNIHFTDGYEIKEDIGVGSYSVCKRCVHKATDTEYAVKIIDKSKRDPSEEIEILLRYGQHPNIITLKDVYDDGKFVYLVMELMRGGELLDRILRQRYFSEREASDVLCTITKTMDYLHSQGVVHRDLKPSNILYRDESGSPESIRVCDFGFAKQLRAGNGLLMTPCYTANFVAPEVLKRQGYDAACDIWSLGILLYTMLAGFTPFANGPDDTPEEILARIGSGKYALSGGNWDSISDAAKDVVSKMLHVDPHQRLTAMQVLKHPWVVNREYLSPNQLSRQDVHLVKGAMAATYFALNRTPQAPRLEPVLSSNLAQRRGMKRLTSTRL

[10] = target: Serine/threonine-protein kinase 32B (Homo sapiens) (UniProt Q9NY57); conditions: Compound concentration 1000.0 nM
[11] = target: Ephrin type-A receptor 6 (Homo sapiens) (UniProt Q9UF33); conditions: Compound concentration 1000.0 nM
[12] = target: Phosphatidylinositol 4,5-bisphosphate 3-kinase catalytic subunit gamma isoform (Homo sapiens) (UniProt P48736); conditions: Compound concentration 1000.0 nM
[13] = target: Alpha-2C adrenergic receptor (Homo sapiens) (UniProt P18825); conditions: Compound concentration 10.0 uM
[14] = target: Non-receptor tyrosine-protein kinase TNK1 (Homo sapiens) (UniProt Q13470); conditions: Compound concentration 1000.0 nM
[15] = target: Membrane-associated tyrosine- and threonine-specific cdc2-inhibitory kinase (Homo sapiens) (UniProt Q99640); conditions: Compound concentration 1000.0 nM
[16] = target: Mitogen-activated protein kinase kinase kinase 6 (Homo sapiens) (UniProt O95382); conditions: Compound concentration 1000.0 nM
[17] = target: Serine/threonine-protein kinase TAO1 (Homo sapiens) (UniProt Q7L7X3); conditions: Compound concentration 1000.0 nM
[18] = test system: Phosphatidylinositol 4,5-bisphosphate 3-kinase catalytic subunit alpha isoform (Homo sapiens), P42336 [H1047L]; conditions: Compound concentration 1000.0 nM
[19] = target: Serine/threonine-protein kinase 36 (Homo sapiens) (UniProt Q9NRP7); conditions: Compound concentration 1000.0 nM
[20] = target: Serine/threonine-protein kinase WNK3 (Homo sapiens) (UniProt Q9BYP7); conditions: Compound concentration 1000.0 nM
[21] = target: Mitogen-activated protein kinase 7 (Homo sapiens) (UniProt Q13164); conditions: Compound concentration 1000.0 nM
[22] = target: Dual specificity protein kinase CLK2 (Homo sapiens) (UniProt P49760); conditions: Compound concentration 1000.0 nM
[23] = target: Casein kinase I isoform delta (Homo sapiens) (UniProt P48730); conditions: Compound concentration 1000.0 nM
[24] = target: Non-receptor tyrosine-protein kinase TYK2 (Homo sapiens) (UniProt P29597); conditions: Compound concentration 1000.0 nM
Chain of Non-receptor tyrosine-protein kinase TYK2 (Homo sapiens) (P29597 whole entry, canonical isoform): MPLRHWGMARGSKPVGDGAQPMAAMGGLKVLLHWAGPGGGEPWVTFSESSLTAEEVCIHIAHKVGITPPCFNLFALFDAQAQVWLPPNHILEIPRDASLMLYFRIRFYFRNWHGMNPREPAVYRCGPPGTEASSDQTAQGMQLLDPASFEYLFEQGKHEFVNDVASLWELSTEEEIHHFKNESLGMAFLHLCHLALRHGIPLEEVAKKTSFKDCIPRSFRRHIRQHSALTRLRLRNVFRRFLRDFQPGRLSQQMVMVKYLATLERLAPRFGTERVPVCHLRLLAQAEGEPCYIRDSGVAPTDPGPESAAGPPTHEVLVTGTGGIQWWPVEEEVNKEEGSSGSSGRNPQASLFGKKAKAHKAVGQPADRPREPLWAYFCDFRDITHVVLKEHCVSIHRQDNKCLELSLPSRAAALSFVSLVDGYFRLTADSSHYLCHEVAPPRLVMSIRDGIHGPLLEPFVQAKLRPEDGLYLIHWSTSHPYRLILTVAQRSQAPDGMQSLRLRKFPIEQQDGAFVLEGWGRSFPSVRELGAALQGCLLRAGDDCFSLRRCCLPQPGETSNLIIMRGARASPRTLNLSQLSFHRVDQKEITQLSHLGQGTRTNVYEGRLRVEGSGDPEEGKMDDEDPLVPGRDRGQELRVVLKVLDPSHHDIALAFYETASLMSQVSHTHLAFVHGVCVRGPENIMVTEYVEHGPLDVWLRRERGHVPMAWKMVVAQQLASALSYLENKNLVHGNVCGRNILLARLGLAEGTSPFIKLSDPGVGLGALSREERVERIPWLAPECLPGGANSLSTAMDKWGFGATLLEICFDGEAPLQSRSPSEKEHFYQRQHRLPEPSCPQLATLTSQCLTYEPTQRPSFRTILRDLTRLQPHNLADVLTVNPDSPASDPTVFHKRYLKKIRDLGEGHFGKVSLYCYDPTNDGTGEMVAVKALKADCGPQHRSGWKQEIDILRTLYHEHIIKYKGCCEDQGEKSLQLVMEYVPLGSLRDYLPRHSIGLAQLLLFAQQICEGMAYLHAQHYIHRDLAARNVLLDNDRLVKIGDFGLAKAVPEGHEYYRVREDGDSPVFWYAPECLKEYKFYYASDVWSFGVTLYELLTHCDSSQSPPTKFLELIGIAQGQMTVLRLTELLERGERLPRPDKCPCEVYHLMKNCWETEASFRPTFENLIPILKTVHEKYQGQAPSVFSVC

[25] = test system: Phosphatidylinositol 4,5-bisphosphate 3-kinase catalytic subunit alpha isoform (Homo sapiens), P42336 [E545K]; conditions: Compound concentration 1000.0 nM
[26] = target: Proto-oncogene tyrosine-protein kinase ROS (Homo sapiens) (UniProt P08922); conditions: Compound concentration 1000.0 nM
[27] = target: Cyclin-dependent kinase-like 3 (Homo sapiens) (UniProt Q8IVW4); conditions: Compound concentration 1000.0 nM
[28] = target: Serine/threonine-protein kinase ULK1 (Homo sapiens) (UniProt O75385); conditions: Compound concentration 1000.0 nM
[29] = target: Serine/threonine-protein kinase Nek10 (Homo sapiens) (UniProt Q6ZWH5); conditions: Compound concentration 1000.0 nM
[30] = target: Muscarinic acetylcholine receptor M4 (Homo sapiens) (UniProt P08173); conditions: Compound concentration 10.0 uM
[31] = target: Tyrosine-protein kinase receptor Tie-1 (Homo sapiens) (UniProt P35590); conditions: Compound concentration 1000.0 nM
[32] = target: 5-hydroxytryptamine receptor 1D (Homo sapiens) (UniProt P28221); conditions: Compound concentration 10.0 uM
[33] = target: Serine/threonine-protein kinase 32C (Homo sapiens) (UniProt Q86UX6); conditions: Compound concentration 1000.0 nM
[34] = target: Cyclin-dependent kinase-like 5 (Homo sapiens) (UniProt O76039); conditions: Compound concentration 1000.0 nM
[35] = target: Mitogen-activated protein kinase kinase kinase kinase 5 (Homo sapiens) (UniProt Q9Y4K4); conditions: Compound concentration 1000.0 nM
[36] = target: Serine/threonine-protein kinase DCLK3 (Homo sapiens) (UniProt Q9C098); conditions: Compound concentration 1000.0 nM
[37] = target: Ribosomal protein S6 kinase beta-1 (Homo sapiens) (UniProt P23443); conditions: Compound concentration 1000.0 nM
[38] = target: Phosphatidylinositol 3-kinase catalytic subunit type 3 (Homo sapiens) (UniProt Q8NEB9); conditions: Compound concentration 1000.0 nM
Chain of Phosphatidylinositol 3-kinase catalytic subunit type 3 (Homo sapiens) (Q8NEB9 whole entry): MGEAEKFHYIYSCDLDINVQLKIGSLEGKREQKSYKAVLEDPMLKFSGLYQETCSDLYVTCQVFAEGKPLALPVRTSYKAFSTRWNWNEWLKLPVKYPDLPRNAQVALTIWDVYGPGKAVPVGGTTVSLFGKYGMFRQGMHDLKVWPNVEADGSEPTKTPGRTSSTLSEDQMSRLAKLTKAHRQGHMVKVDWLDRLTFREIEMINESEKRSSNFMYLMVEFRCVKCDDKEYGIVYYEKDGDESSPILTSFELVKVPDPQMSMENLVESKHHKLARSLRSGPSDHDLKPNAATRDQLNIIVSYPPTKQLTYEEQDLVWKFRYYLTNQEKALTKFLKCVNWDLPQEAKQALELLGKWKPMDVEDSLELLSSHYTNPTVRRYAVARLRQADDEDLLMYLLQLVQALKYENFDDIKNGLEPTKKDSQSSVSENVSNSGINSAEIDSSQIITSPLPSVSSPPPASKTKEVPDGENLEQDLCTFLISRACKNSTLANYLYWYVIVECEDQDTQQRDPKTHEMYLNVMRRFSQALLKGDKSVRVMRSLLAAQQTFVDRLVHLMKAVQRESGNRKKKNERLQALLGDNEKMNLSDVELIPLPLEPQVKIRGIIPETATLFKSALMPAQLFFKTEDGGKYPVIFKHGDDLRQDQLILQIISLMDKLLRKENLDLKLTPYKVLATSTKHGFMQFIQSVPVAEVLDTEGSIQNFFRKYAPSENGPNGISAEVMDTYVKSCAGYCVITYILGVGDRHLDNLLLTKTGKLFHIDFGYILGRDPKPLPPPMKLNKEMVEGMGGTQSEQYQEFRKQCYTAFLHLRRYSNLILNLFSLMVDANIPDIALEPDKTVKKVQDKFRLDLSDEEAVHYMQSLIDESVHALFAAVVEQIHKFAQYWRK

[39] = target: BMP-2-inducible protein kinase (Homo sapiens) (UniProt Q9NSY1); conditions: Compound concentration 1000.0 nM
[40] = target: BDNF/NT-3 growth factors receptor (Homo sapiens) (UniProt Q16620); conditions: Compound concentration 1000.0 nM
[41] = test system: Phosphatidylinositol 4,5-bisphosphate 3-kinase catalytic subunit alpha isoform (Homo sapiens), P42336 [I800L]; conditions: Compound concentration 1000.0 nM
[42] = target: Ephrin type-B receptor 1 (Homo sapiens) (UniProt P54762); conditions: Compound concentration 1000.0 nM
[43] = target: Serine/threonine-protein kinase Nek11 (Homo sapiens) (UniProt Q8NG66); conditions: Compound concentration 1000.0 nM
[44] = target: Protein kinase C iota type (Homo sapiens) (UniProt P41743); conditions: Compound concentration 1000.0 nM
[45] = target: Serine/threonine-protein kinase PAK 4 (Homo sapiens) (UniProt O96013); conditions: Compound concentration 1000.0 nM
Chain of Serine/threonine-protein kinase PAK 4 (Homo sapiens) (O96013 whole entry, looked up): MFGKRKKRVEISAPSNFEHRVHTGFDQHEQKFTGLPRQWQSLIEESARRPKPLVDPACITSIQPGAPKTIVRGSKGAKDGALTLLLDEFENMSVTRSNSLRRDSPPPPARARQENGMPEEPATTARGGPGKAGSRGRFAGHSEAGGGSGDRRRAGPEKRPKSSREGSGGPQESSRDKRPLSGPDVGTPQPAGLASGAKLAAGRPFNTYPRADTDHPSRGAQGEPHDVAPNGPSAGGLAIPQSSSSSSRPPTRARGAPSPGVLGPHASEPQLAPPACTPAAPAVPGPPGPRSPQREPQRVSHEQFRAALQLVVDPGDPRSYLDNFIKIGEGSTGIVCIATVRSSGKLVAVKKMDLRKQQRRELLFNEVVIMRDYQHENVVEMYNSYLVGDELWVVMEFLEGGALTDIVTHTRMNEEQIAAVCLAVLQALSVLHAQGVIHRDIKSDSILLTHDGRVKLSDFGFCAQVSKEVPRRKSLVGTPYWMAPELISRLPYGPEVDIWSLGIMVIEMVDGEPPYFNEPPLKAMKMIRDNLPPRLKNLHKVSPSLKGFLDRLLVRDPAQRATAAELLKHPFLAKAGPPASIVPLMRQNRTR

C[C@H](NC(=O)c1cnc2n1[C@](C)(Cc1ccc(C#N)cc1)C(=O)N2c1cc(Cl)c(F)c(Cl)c1)C(=O)NC1(c2ccccn2)CC1 [BI 1950]
inactive: residual activity [1] 100% | residual activity [2] 100% | residual activity [3] 100% | residual activity [4] 99% | residual activity [5] 100% | residual activity [6] 100% | residual activity [7] 100% | inhibition [8] -4.31% | residual activity [9] 94% | residual activity [10] 80% | residual activity [11] 100% | residual activity [12] 86% | inhibition [13] 0.16% | residual activity [14] 88% | residual activity [15] 79% | residual activity [16] 100% | residual activity [17] 86% | residual activity [18] 81% | residual activity [19] 100% | residual activity [20] 78% | residual activity [21] 100% | residual activity [22] 97% | residual activity [23] 100% | residual activity [24] 100% | residual activity [25] 100% | residual activity [26] 100% | residual activity [27] 100% | residual activity [28] 100% | residual activity [29] 100% | inhibition [30] 12.1% | residual activity [31] 100% | inhibition [32] 12% | residual activity [33] 100% | residual activity [34] 100% | residual activity [35] 94% | residual activity [36] 100% | residual activity [37] 100% | residual activity [38] 100% | residual activity [39] 100% | residual activity [40] 100% | residual activity [41] 100% | residual activity [42] 85% | residual activity [43] 100% | residual activity [44] 100% | residual activity [45] 100%

C[C@@]1(Cc2ccc(C#N)cc2)C(=O)N(c2cc(Cl)cc(Cl)c2)c2ncc(C(=O)NC3(c4nc(C5CCC5)no4)CC3)n21 [BI 9446]
inactive: residual activity [1] 100% | residual activity [2] 100% | residual activity [3] 100% | residual activity [4] 100% | residual activity [5] 100% | residual activity [6] 100% | residual activity [7] 100% | inhibition [8] 4.18% | residual activity [9] 99% | residual activity [10] 100% | residual activity [11] 88% | residual activity [12] 95% | inhibition [13] 9.3% | residual activity [14] 93% | residual activity [15] 75% | residual activity [16] 82% | residual activity [17] 97% | residual activity [18] 96% | residual activity [19] 100% | residual activity [20] 100% | residual activity [21] 100% | residual activity [22] 100% | residual activity [23] 100% | residual activity [24] 100% | residual activity [25] 94% | residual activity [26] 100% | residual activity [27] 100% | residual activity [28] 100% | residual activity [29] 100% | inhibition [30] 21.6% | residual activity [31] 100% | inhibition [32] 22.4% | residual activity [33] 99% | residual activity [34] 100% | residual activity [35] 93% | residual activity [36] 88% | residual activity [37] 100% | residual activity [38] 100% | residual activity [39] 100% | residual activity [40] 100% | residual activity [41] 88% | residual activity [42] 87% | residual activity [43] 100% | residual activity [44] 87% | residual activity [45] 98%
